Converted amounts (≈) assume the structure as drawn.
How the values were obtained:
[1] = test system: Serratia marcescens; assay: Antimicrobial activity against cetylpyridinium chloride-resistant Serratia marcescens 01 by broth dilution method; assay type: functional
[2] = test system: Serratia marcescens; assay: microbe, parasite or virus in culture; assay type: functional; conditions: ATCC 13880
Description: (§1) Antimicrobial activity against Serratia marcescens ATCC 13880 by broth dilution method

[3] = test system: Serratia marcescens; assay: Antimicrobial activity against cetylpyridinium chloride-sensitive Serratia marcescens 71 by broth dilution method; assay type: functional
[4] = test system: Serratia marcescens; assay: Antimicrobial activity against cetylpyridinium chloride-sensitive Serratia marcescens 79 by broth dilution method; assay type: functional
[5] = test system: Serratia marcescens; assay: Antimicrobial activity against cetylpyridinium chloride-resistant Serratia marcescens 011 by broth dilution method; assay type: functional
[6] = test system: Serratia marcescens; assay: Antimicrobial activity against Serratia marcescens ATCC 13880 harboring plasmid STV29 by broth dilution method; assay type: functional
[7] = test system: Serratia marcescens; assay: Antimicrobial activity against cetylpyridinium chloride-resistant Serratia marcescens HMS011 by broth dilution method; assay type: functional
[8] = test system: Serratia marcescens; assay: Antimicrobial activity against cetylpyridinium chloride-resistant Serratia marcescens 01 harboring plasmid STV29 by broth dilution method; assay type: functional
[9] = test system: Serratia marcescens; assay: Antimicrobial activity against cetylpyridinium chloride-sensitive Serratia marcescens 71 harboring plasmid STV29 expressing hasF gene by broth dilution method; assay type: functional
[10] = test system: Serratia marcescens; assay: Antimicrobial activity against cetylpyridinium chloride-resistant Serratia marcescens HMS011 harboring plasmid STV28 expressing sdeB gene by broth dilution method; assay type: functional
[11] = test system: Serratia marcescens; assay: Antimicrobial activity against cetylpyridinium chloride-sensitive Serratia marcescens 71 harboring plasmid STV29 by broth dilution method; assay type: functional
[12] = test system: Serratia marcescens; assay: Antimicrobial activity against cetylpyridinium chloride-resistant Serratia marcescens 011 harboring plasmid STV28 expressing sdeB gene by broth dilution method; assay type: functional
[13] = test system: Serratia marcescens; assay: Antimicrobial activity against cetylpyridinium chloride-sensitive Serratia marcescens 79 harboring plasmid STV29 expressing hasF gene by broth dilution method; assay type: functional
[14] = test system: Serratia marcescens; assay: Antimicrobial activity against cetylpyridinium chloride-sensitive Serratia marcescens 79 harboring plasmid STV29 by broth dilution method; assay type: functional
[15] = test system: Serratia marcescens; assay: Cellular uptake at cetylpyridinium chloride-resistant Serratia marcescens 01 at 50 ug/ml after 60 mins by spectrofluorometry in presence of […] proteon conductor CCCP; assay type: ADME, organism-based; conditions: in vivo, 1 h
[16] = test system: Serratia marcescens; assay: Cellular uptake at Serratia marcescens ATCC 13880 at 50 ug/ml after 60 mins by spectrofluorometry in presence of […] proteon conductor CCCP; assay type: ADME, organism-based; conditions: in vivo, 1 h
[17] = test system: Serratia marcescens; assay: Cellular uptake at cetylpyridinium chloride-resistant Serratia marcescens 01 at 50 ug/ml after 60 mins by spectrofluorometry; assay type: ADME, organism-based; conditions: in vivo, 1 h
[18] = test system: Serratia marcescens; assay: Cellular uptake at Serratia marcescens ATCC 13880 at 50 ug/ml after 60 mins by spectrofluorometry; assay type: ADME, organism-based; conditions: in vivo, 1 h
[19] = test system: Serratia marcescens; conditions: 79
[20] = test system: Serratia marcescens; conditions: 71
[21] = test system: Serratia marcescens; conditions: 01
[22] = test system: Serratia marcescens; conditions: ATCC 13880
Description: as §1

## CCn1cc(C(=O)O)c(=O)c2ccc(C)nc21 [NALIDIXIC ACID]
[1]
  MIC: 12.5 µg/mL (≈ 53.8 µM)
[2]
  MIC: 12.5 µg/mL (≈ 53.8 µM)
[3]
  MIC: 12.5 µg/mL (≈ 53.8 µM)
[4]
  MIC: 12.5 µg/mL (≈ 53.8 µM)

## O=C(N[C@H](CO)[C@H](O)c1ccc([N+](=O)[O-])cc1)C(Cl)Cl [CHLORAMPHENICOL]
[5]
  MIC: 25 µg/mL (≈ 77.4 µM)
[6]
  MIC: > 400 µg/mL
[7]
  MIC: 12.5 µg/mL (≈ 38.7 µM)
[8]
  MIC: > 400 µg/mL
[1]
  MIC: 100 µg/mL (≈ 309 µM)
[9]
  MIC: > 400 µg/mL
[10]
  MIC: > 400 µg/mL
[2]
  MIC: 12.5 µg/mL (≈ 38.7 µM)
[11]
  MIC: > 400 µg/mL
[3]
  MIC: 3.13 µg/mL (≈ 9.69 µM)
[12]
  MIC: > 400 µg/mL
[13]
  MIC: > 400 µg/mL
[14]
  MIC: > 400 µg/mL
[4]
  MIC: 3.13 µg/mL (≈ 9.69 µM)

## CCCCCCCCCCCC[n+]1ccccc1.[I-]
[1]
  MIC: 100 µg/mL
[2]
  MIC: 100 µg/mL
[3]
  MIC: 12.5 µg/mL
[4]
  MIC: 6.25 µg/mL

## CCn1cc(C(=O)O)c(=O)c2cc(F)c(N3CCNCC3)cc21 [NORFLOXACIN]
[5]
  MIC: 0.78 µg/mL (≈ 2.44 µM)
[6]
  MIC: 0.2 µg/mL (≈ 0.626 µM)
[7]
  MIC: 0.2 µg/mL (≈ 0.626 µM)
[8]
  MIC: 3.13 µg/mL (≈ 9.8 µM)
[1]
  MIC: 3.13 µg/mL (≈ 9.8 µM)
[15]
  Drug uptake: 250 a.u.
[9]
  MIC: 3.13 µg/mL (≈ 9.8 µM)
[16]
  Drug uptake: 250 a.u.
[10]
  MIC: 0.2 µg/mL (≈ 0.626 µM)
[2]
  MIC: 0.2 µg/mL (≈ 0.626 µM)
[11]
  MIC: 0.05 µg/mL (≈ 0.157 µM)
[3]
  MIC: 0.05 µg/mL (≈ 0.157 µM)
[17]
  Drug uptake: 10 a.u.
[12]
  MIC: 3.13 µg/mL (≈ 9.8 µM)
[13]
  MIC: 3.13 µg/mL (≈ 9.8 µM)
[14]
  MIC: 0.05 µg/mL (≈ 0.157 µM)
[18]
  Drug uptake: 60 a.u.
[4]
  MIC: 0.05 µg/mL (≈ 0.157 µM)

## CC1COc2c(N3CCN(C)CC3)c(F)cc3c(=O)c(C(=O)O)cn1c23 (stereo not given) [OFLOXACIN]
[1]
  MIC: 3.13 µg/mL (≈ 8.66 µM)
[2]
  MIC: 0.1 µg/mL (≈ 0.277 µM)
[3]
  MIC: 0.05 µg/mL (≈ 0.138 µM)
[4]
  MIC: 0.05 µg/mL (≈ 0.138 µM)

## NC[C@H]1O[C@H](O[C@H]2[C@H](O)[C@@H](O[C@H]3O[C@H](CO)[C@@H](O)[C@H](N)[C@H]3O)[C@H](N)C[C@@H]2N)[C@H](O)[C@@H](O)[C@@H]1O [KANAMYCIN]
[5]
  MIC: 1.56 µg/mL (≈ 3.22 µM)
[6]
  MIC: 1.56 µg/mL (≈ 3.22 µM)
[7]
  MIC: 1.56 µg/mL (≈ 3.22 µM)
[8]
  MIC: 1.56 µg/mL (≈ 3.22 µM)
[1]
  MIC: 1.56 µg/mL (≈ 3.22 µM)
[10]
  MIC: 1.56 µg/mL (≈ 3.22 µM)
[2]
  MIC: 1.56 µg/mL (≈ 3.22 µM)
[3]
  MIC: > 400 µg/mL
[12]
  MIC: 1.56 µg/mL (≈ 3.22 µM)
[4]
  MIC: > 400 µg/mL

## CCn1cc(C(=O)O)c(=O)c2cc(F)c(N3CCNC(C)C3)c(F)c21 (stereo not given) [LOMEFLOXACIN]
[5]
  MIC: 0.78 µg/mL (≈ 2.22 µM)
[6]
  MIC: 0.2 µg/mL (≈ 0.569 µM)
[7]
  MIC: 0.2 µg/mL (≈ 0.569 µM)
[8]
  MIC: 1.56 µg/mL (≈ 4.44 µM)
[1]
  MIC: 1.56 µg/mL (≈ 4.44 µM)
[9]
  MIC: 1.56 µg/mL (≈ 4.44 µM)
[10]
  MIC: 0.2 µg/mL (≈ 0.569 µM)
[2]
  MIC: 0.2 µg/mL (≈ 0.569 µM)
[11]
  MIC: 0.05 µg/mL (≈ 0.142 µM)
[3]
  MIC: 0.05 µg/mL (≈ 0.142 µM)
[12]
  MIC: 1.56 µg/mL (≈ 4.44 µM)
[13]
  MIC: 1.56 µg/mL (≈ 4.44 µM)
[14]
  MIC: 0.05 µg/mL (≈ 0.142 µM)
[4]
  MIC: 0.05 µg/mL (≈ 0.142 µM)

## CC1(C)S[C@@H]2[C@H](NC(=O)C(C(=O)O)c3ccccc3)C(=O)N2[C@H]1C(=O)O (stereo not given in full) [CARBENICILLIN]
[5]
  MIC: 3.13 µg/mL (≈ 8.27 µM)
[6]
  MIC: 6.25 µg/mL (≈ 16.5 µM)
[7]
  MIC: 6.25 µg/mL (≈ 16.5 µM)
[8]
  MIC: 3.13 µg/mL (≈ 8.27 µM)
[1]
  MIC: 3.13 µg/mL (≈ 8.27 µM)
[9]
  MIC: 3.13 µg/mL (≈ 8.27 µM)
[10]
  MIC: 6.25 µg/mL (≈ 16.5 µM)
[2]
  MIC: 6.25 µg/mL (≈ 16.5 µM)
[11]
  MIC: 3.13 µg/mL (≈ 8.27 µM)
[3]
  MIC: 3.13 µg/mL (≈ 8.27 µM)
[12]
  MIC: 3.13 µg/mL (≈ 8.27 µM)
[13]
  MIC: 3.13 µg/mL (≈ 8.27 µM)
[14]
  MIC: 3.13 µg/mL (≈ 8.27 µM)
[4]
  MIC: 3.13 µg/mL (≈ 8.27 µM)

## CCn1cc(C(=O)O)c(=O)c2cnc(N3CCNCC3)nc21 [PIPEMIDIC ACID]
[5]
  MIC: 6.25 µg/mL (≈ 20.6 µM)
[6]
  MIC: 3.13 µg/mL (≈ 10.3 µM)
[7]
  MIC: 3.13 µg/mL (≈ 10.3 µM)
[8]
  MIC: 25 µg/mL (≈ 82.4 µM)
[1]
  MIC: 25 µg/mL (≈ 82.4 µM)
[9]
  MIC: 12.5 µg/mL (≈ 41.2 µM)
[10]
  MIC: 3.13 µg/mL (≈ 10.3 µM)
[2]
  MIC: 3.13 µg/mL (≈ 10.3 µM)
[11]
  MIC: 0.78 µg/mL (≈ 2.57 µM)
[3]
  MIC: 0.78 µg/mL (≈ 2.57 µM)
[12]
  MIC: 25 µg/mL (≈ 82.4 µM)
[13]
  MIC: 12.5 µg/mL (≈ 41.2 µM)
[14]
  MIC: 0.78 µg/mL (≈ 2.57 µM)
[4]
  MIC: 0.78 µg/mL (≈ 2.57 µM)

## CN(C)[C@@H]1C(O)=C(C(N)=O)C(=O)[C@@]2(O)C(O)=C3C(=O)c4c(O)cccc4[C@@](C)(O)[C@H]3C[C@@H]12 [TETRACYCLINE]
[5]
  MIC: 100 µg/mL (≈ 225 µM)
[6]
  MIC: 50 µg/mL (≈ 113 µM)
[7]
  MIC: 50 µg/mL (≈ 113 µM)
[8]
  MIC: 100 µg/mL (≈ 225 µM)
[1]
  MIC: 100 µg/mL (≈ 225 µM)
[9]
  MIC: 50 µg/mL (≈ 113 µM)
[10]
  MIC: 50 µg/mL (≈ 113 µM)
[2]
  MIC: 50 µg/mL (≈ 113 µM)
[11]
  MIC: 3.13 µg/mL (≈ 7.04 µM)
[3]
  MIC: 3.13 µg/mL (≈ 7.04 µM)
[12]
  MIC: 100 µg/mL (≈ 225 µM)
[13]
  MIC: 50 µg/mL (≈ 113 µM)
[14]
  MIC: 3.13 µg/mL (≈ 7.04 µM)
[4]
  MIC: 3.13 µg/mL (≈ 7.04 µM)

## CN[C@@H]1[C@H](O[C@H]2[C@H](O[C@H]3[C@H](O)[C@@H](O)[C@H](N=C(N)N)[C@@H](O)[C@@H]3N=C(N)N)O[C@@H](C)[C@]2(O)C=O)O[C@@H](CO)[C@H](O)[C@H]1O [STREPTOMYCIN]
[1]
  MIC: 3.13 µg/mL (≈ 5.38 µM)
[2]
  MIC: 3.13 µg/mL (≈ 5.38 µM)
[3]
  MIC: 1.56 µg/mL (≈ 2.68 µM)
[4]
  MIC: 1.56 µg/mL (≈ 2.68 µM)

## N=C(NCCCCCCNC(=N)NC(=N)Nc1ccc(Cl)cc1)NC(=N)Nc1ccc(Cl)cc1.O=C(O)[C@H](O)[C@@H](O)[C@H](O)[C@H](O)CO
[1]
  MIC: 100 µg/mL
[2]
  MIC: 25 µg/mL
[3]
  MIC: 3.13 µg/mL
[4]
  MIC: 3.13 µg/mL

## CC1(C)S[C@@H]2[C@H](NC(=O)[C@H](N)c3ccccc3)C(=O)N2[C@H]1C(=O)O [AMPICILLIN]
[1]
  MIC: 6.25 µg/mL (≈ 17.9 µM)
[2]
  MIC: 100 µg/mL (≈ 286 µM)
[3]
  MIC: 6.25 µg/mL (≈ 17.9 µM)
[4]
  MIC: 6.25 µg/mL (≈ 17.9 µM)

## CCn1cc(C(=O)O)c(=O)c2cc(F)c(N3CCNCC3)nc21 [ENOXACIN]
[1]
  MIC: 3.13 µg/mL (≈ 9.77 µM)
[2]
  MIC: 0.2 µg/mL (≈ 0.624 µM)
[3]
  MIC: 0.1 µg/mL (≈ 0.312 µM)
[4]
  MIC: 0.1 µg/mL (≈ 0.312 µM)

## GENTAMICIN
[19]
  MIC: 1.56 µg/mL
[20]
  MIC: 1.56 µg/mL
[21]
  MIC: 1.56 µg/mL
[22]
  MIC: 1.56 µg/mL
